Data taken from patent publication US8956445B2, “High stability diionic liquid salts” (Sigma-Aldrich Co., priority 2004, dated 2015).
Where two headings read alike, the source gives them in different places.

What was measured:
[1] = values taken from reference 31, cited from earlier work
[2] = Experimental: Thermal stabilities were measured by immobilizing an approximate 0.15-0.20 microns film of the ionic liquid on the inner wall of a fused silica capillary. The capillary was then heated slowly in an oven and a very sensitive flame ionization detector (or mass spectrometer) used to detect any volatilization or decomposition of the ionic liquid. There are several advantages of using this set-up to measure the thermal stabilities of ionic liquids. The thermal stability is measured in the absence of oxygen by purging the capillary with a continuous flow of an inert gas such as helium, hydrogen, or nitrogen. […] Finally, this approach can use mass spectrometry detection to determine the likely volatilization/decomposition products.
[3] = exposed to the atmosphere and heated; cited from earlier work
[4] = Surface tension (DuNuoy Tensiometer); assay type: physicochemical; settings: room temperature (23° C.)
[5] = Solvation interaction parameters by inverse gas-liquid chromatography (Abraham solvation model); assay type: physicochemical
Experimental: The preparation of the capillary columns for inverse gas-liquid chromatographic analysis was performed using a previously described procedure.^31 All capillary columns had efficiencies between 2100 to 2500 plates/meter. Characterization of the capillary columns and probe molecule descriptions are listed in supplemental information. Multiple linear regression analysis (MLRA) and statistical calculations were performed using the program Analyse-it (Microsoft, USA).
We have previously reported that the Abraham solvation model, a linear free energy approach that utilizes inverse gas-liquid chromatography to describe the solvation properties of a liquid, can be used to characterize room temperature ionic liquids.^31 Described by equation 1, the model provides the so-called “interaction parameters” (r, s, a, b, l) by using multiple linear regression analysis to fit the retention factor (k, determined chromatographically) to the solute descriptors (R2, π2^H, α2^H, β2^H, log L^16) for a wide variety of probe solute molecules. […] The solvation properties of four dicationic ionic liquids (see Table 4) were evaluated and the interaction parameters compared to those obtained for their traditional monocationic analogues 1-butyl-3-methylimidazolium and 1-butyl-1-methylpyrrolidinium ionic liquids.
Previously we characterized a large number of room temperature ionic liquids in terms of multiple solvation interactions using the solvation parameter model, shown in equation 3.^44 log k=c+rR2+sπ2^H+aα2^H+bβ2^H+l log L^16 [3] This approach utilizes inverse gas-liquid chromatography and allows the use of a large number of probe molecules to deconvolute solute retention in terms of the type and magnitude of individual solvation interactions. The solute descriptors (R2, π2^H, α2^H, β2^H, log L^16) from Equation 3 are obtained from the literature for many probe molecules containing a variety of functional groups.^45 The retention factor is determined chromatographically. The solute descriptors and retention factors are subjected to multiple linear regression analysis to obtain the interaction parameter coefficients (r, s, a, b, l), which ultimately characterize the stationary phase: r is the ability of the diionic liquid containing-stationary phase to interact with π and n electrons of the solute, s is a measure of the dipolarity/polarizability of the diionic liquid containing-stationary phase, a defines the diionic liquid containing-stationary phase hydrogen bond basicity, b is a measure of the hydrogen bond acidity, and/refers to the ability of the diionic liquid containing-stationary phase to separate adjacent members of a homologous series.^46
Test solutes used to determine interaction parameters and solvation thermodynamics were dissolved in dichloromethane. A Hewlett-Packard model 5890 gas chromatograph and a Hewlett-Packard 6890 series integrator were used for all separations. Split injection and flame ionization detection were utilized with injection and detection temperatures of 250° C. Helium was used as the carrier gas with a column inlet pressure of 3.1 psi and flow rate of 1.0 mL/min. Methane was used to determine the dead volume of the column. Multiple linear regression analysis and statistical calculations were performed using the program Analyze-it (Microsoft).

[6] = Refractive index (Abbe-3L refractometer); assay type: physicochemical; settings: 23° C.
Experimental: (§1) The densities of the ionic liquids or, more correctly, […] (used synonymously except as indicated otherwise explicitly or by context) was determined at 23° C. by placing 2.0 mL of the ionic liquid in a 2.0 mL volumetric tube and weighing by difference. The melting points of the ionic liquids were determined using a Perkin Elmer Pyris 1 Differential Scanning calorimeter (Boston, Mass.). Typical methods involved using a 10° C./min temperature ramp to determine and identify the first and second order thermal transitions. […] For solid compounds, the melting points were verified using a capillary melting point apparatus. Refractive index measurements were conducted at 23° C. using a Bausch & Lomb Abbe-3L refractometer.

[7] = Density (2.0 mL volumetric tube, weighing by difference); assay type: physicochemical; settings: 23° C.
Experimental: as §1

Remark: listed apart in the source
[8] = 0.15-0.20 micron film in fused silica capillary, helium flow, FID, tested only up to 400° C.

SMILES	Surface Tension [4] [dynes/cm]	thermal stability (volatilization/decomposition temperature) [2]	a (hydrogen bond basicity) ([5]; 40° C.)	b (hydrogen bond acidity) ([5]; 40° C.)	c (interaction parameter table, constant) ([5]; 40° C.)	l (dispersion forces) ([5]; 40° C.)	r (interaction via nonbonding and π-electrons) ([5]; 40° C.)	s (dipolarity/polarizability) ([5]; 40° C.)	a (hydrogen bond basicity) ([5]; 70° C.)	b (hydrogen bond acidity) ([5]; 70° C.)	c (interaction parameter table, constant) ([5]; 70° C.)	l (dispersion forces) ([5]; 70° C.)	r (interaction via nonbonding and π-electrons) ([5]; 70° C.)	s (dipolarity/polarizability) ([5]; 70° C.)	a (hydrogen bond basicity) ([5]; 100° C.)	b (hydrogen bond acidity) ([5]; 100° C.)	Refractive Index [6]	Density [7] [g/mL]	Miscibility with Heptane	Miscibility with Water	also measured
CCCCn1cc[n+](C)c1.O=S(=O)([N-]S(=O)(=O)C(F)(F)F)C(F)(F)F [BMIM—NTf2, 1-butyl-3-methylimidazolium bis[(trifluoromethylsulfonyl)imide]]																					a (hydrogen bond basicity) ([1]; 40° C.): 2.02; b (hydrogen bond acidity) ([1]; 40° C.): 0.36; c (interaction parameter table, constant) ([1]; 40° C.): −2.87; l (dispersion forces) ([1]; 40° C.): 0.63; r (interaction via nonbonding and π-electrons) ([1]; 40° C.): 0; s (dipolarity/polarizability) ([1]; 40° C.): 1.89; a (hydrogen bond basicity) ([1]; 70° C.): 1.75; b (hydrogen bond acidity) ([1]; 70° C.): 0.38; c (interaction parameter table, constant) ([1]; 70° C.): −3.03; l (dispersion forces) ([1]; 70° C.): 0.56; r (interaction via nonbonding and π-electrons) ([1]; 70° C.): 0; s (dipolarity/polarizability) ([1]; 70° C.): 1.67; a (hydrogen bond basicity) ([1]; 100° C.): 1.55; b (hydrogen bond acidity) ([1]; 100° C.): 0.24; c (interaction parameter table, constant) ([1]; 100° C.): −3.13; l (dispersion forces) ([1]; 100° C.): 0.49; r (interaction via nonbonding and π-electrons) ([1]; 100° C.): 0; s (dipolarity/polarizability) ([1]; 100° C.): 1.60; thermal stability (volatilization/decomposition temperature) [2, 8]: 185 °C
CCCCn1cc[n+](C)c1.[Cl-] [BMIM-Cl, 1-butyl-3-methylimidazolium chloride, reference compound]																					thermal stability (volatilization/decomposition temperature) [2, 8]: 145 °C; temperature of obvious signs of decomposition [3]: ≥ 150 °C
C[N+]1(CCCCCCCCC[N+]2(C)CCCC2)CCCC1.O=S(=O)([N-]S(=O)(=O)C(F)(F)F)C(F)(F)F.O=S(=O)([N-]S(=O)(=O)C(F)(F)F)C(F)(F)F [C9(mpy)2-NTf2, 1,9-di(methylpyrrolidinium)nonane di-bis[(trifluoromethyl)sulfonyl]imidate]	42.2	> 400 °C	1.98	0.32	−2.83	0.62	0.27	1.71	1.65	0.35	−2.85	0.48	0.34	1.52	1.48	0.15	1.436	1.41	Immiscible	Immiscible	c (interaction parameter table, constant) ([5]; 100° C.): −2.99; l (dispersion forces) ([5]; 100° C.): 0.42; r (interaction via nonbonding and π-electrons) ([5]; 100° C.): 0.23; s (dipolarity/polarizability) ([5]; 100° C.): 1.49
CCCC[N+]1(CCCCCCCCC[N+]2(CCCC)CCCC2)CCCC1.O=S(=O)([N-]S(=O)(=O)C(F)(F)F)C(F)(F)F.O=S(=O)([N-]S(=O)(=O)C(F)(F)F)C(F)(F)F [C9(bpy)2-NTf2, 1,9-di(butylpyrrolidinium)nonane di-bis[(trifluoromethyl)sulfonyl]imida]		330 °C																	Immiscible	Immiscible	
O=S(=O)([N-]S(=O)(=O)C(F)(F)F)C(F)(F)F.O=S(=O)([N-]S(=O)(=O)C(F)(F)F)C(F)(F)F.c1ccc(Cn2cc[n+](CCCCCCCCCCCC[n+]3ccn(Cc4ccccc4)c3)c2)cc1 [C12(benzim)2-NTf2, 1,12-di(3-benzylimidazolium)dodecane di-bis[(trifluoromethyl)sulfonyl]imidate]	41.5	350-360 °C	1.96	0.84	−2.94	0.66	0.11	1.65	1.75	0.57	−3.07	0.56	0.07	1.62	1.44	0.52	1.482	1.37	Immiscible	Immiscible	c (interaction parameter table, constant) ([5]; 100° C.): −3.12; l (dispersion forces) ([5]; 100° C.): 0.46; r (interaction via nonbonding and π-electrons) ([5]; 100° C.): 0; s (dipolarity/polarizability) ([5]; 100° C.): 1.47
Cn1cc[n+](CCCCCCCCC[n+]2ccn(C)c2)c1.O=S(=O)([N-]S(=O)(=O)C(F)(F)F)C(F)(F)F.O=S(=O)([N-]S(=O)(=O)C(F)(F)F)C(F)(F)F [C9(mim)2-NTf2, 1,9-di(3-methylimidazolium)nonane di-bis[(trifluoromethyl)sulfonyl]imidate]	43.1	350-360 °C	1.83	0.47	−2.86	0.62	0.16	1.81	1.75	0.20	−2.95	0.51	0.11	1.76	1.50	0.15	1.442	1.47	Immiscible	Immiscible	c (interaction parameter table, constant) ([5]; 100° C.): −3.06; l (dispersion forces) ([5]; 100° C.): 0.43; r (interaction via nonbonding and π-electrons) ([5]; 100° C.): 0.11; s (dipolarity/polarizability) ([5]; 100° C.): 1.64
F[P-](F)(F)(F)(F)F.F[P-](F)(F)(F)(F)F.c1ccc(Cn2cc[n+](CCCCCCCCCCCC[n+]3ccn(Cc4ccccc4)c3)c2)cc1 [C12(benzim)2-PF6, 1,12-di(3-benzylimidazolium)dodecane di-hexafluorophosphate]	47.4																1.484	1.27	Immiscible	Immiscible	
